# Results taken from ChEMBL document CHEMBL1201862, “PubChem BioAssay data set” (2004).
# Active and inactive are the calls of the source.
# Key:
# [1] = biological target: Epstein-Barr nuclear antigen 1 (Epstein-Barr virus (strain B95-8) (HHV-4) (Human herpesvirus 4), UniProt P03211); experiment: EBNA-1 inhibitors, dose response, biochemical, fluorescence polarization, 1536-well (AID 2381); parameters: species or system human gammaherpesvirus 4;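 note: fluorescence polarization of a Cy5 DNA probe bound by EBNA-1 protein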
# Epstein-Barr nuclear antigen 1, sequence (P03211 whole entry): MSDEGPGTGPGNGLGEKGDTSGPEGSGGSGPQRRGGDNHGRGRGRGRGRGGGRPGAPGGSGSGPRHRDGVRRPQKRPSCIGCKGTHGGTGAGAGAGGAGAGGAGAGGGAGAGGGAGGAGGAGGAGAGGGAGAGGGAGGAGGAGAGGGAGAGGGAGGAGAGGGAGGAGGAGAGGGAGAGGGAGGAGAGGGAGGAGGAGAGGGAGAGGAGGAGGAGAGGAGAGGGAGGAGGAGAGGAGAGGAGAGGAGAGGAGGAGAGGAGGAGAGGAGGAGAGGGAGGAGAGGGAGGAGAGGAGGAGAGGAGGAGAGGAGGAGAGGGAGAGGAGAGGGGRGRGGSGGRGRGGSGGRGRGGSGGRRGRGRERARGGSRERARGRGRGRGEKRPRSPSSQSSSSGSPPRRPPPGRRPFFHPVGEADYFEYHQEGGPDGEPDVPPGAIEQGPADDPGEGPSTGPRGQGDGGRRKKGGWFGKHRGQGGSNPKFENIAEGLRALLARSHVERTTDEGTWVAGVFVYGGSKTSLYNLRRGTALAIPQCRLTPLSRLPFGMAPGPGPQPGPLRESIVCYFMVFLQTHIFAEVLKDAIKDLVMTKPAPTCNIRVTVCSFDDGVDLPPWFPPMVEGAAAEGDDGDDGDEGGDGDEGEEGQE
# [2] = biological target: Lytic switch protein BZLF1 (Epstein-Barr virus (strain B95-8) (HHV-4) (Human herpesvirus 4), UniProt P03206); experiment: EBV ZTA inhibitors, dose response, counter-screen for EBNA-1 inhibitor project, biochemical, fluorescence polarization, Epstein-Barr virus, 1536-well (AID 2377); parameters: species or system human gammaherpesvirus 4;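 note: fluorescence polarization of Cy5-labelled ZRE DNA probe bound by purified Zta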
# Lytic switch protein BZLF1, sequence (P03206 whole entry): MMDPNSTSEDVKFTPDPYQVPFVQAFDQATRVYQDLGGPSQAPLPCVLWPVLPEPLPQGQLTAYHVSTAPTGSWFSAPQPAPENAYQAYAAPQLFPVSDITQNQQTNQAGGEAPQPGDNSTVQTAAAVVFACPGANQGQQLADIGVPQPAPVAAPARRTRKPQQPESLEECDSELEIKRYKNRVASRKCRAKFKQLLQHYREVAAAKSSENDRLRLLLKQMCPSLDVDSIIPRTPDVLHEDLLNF
# [3] = biological target: Voltage-gated inwardly rectifying potassium channel KCNH2 (Homo sapiens, UniProt Q12809); experiment: hERG protection from proarrhythmic block, potency, dose response, cell-based, thallium flux (AID 2121); format: ADME
# Voltage-gated inwardly rectifying potassium channel KCNH2, sequence (Q12809 whole entry): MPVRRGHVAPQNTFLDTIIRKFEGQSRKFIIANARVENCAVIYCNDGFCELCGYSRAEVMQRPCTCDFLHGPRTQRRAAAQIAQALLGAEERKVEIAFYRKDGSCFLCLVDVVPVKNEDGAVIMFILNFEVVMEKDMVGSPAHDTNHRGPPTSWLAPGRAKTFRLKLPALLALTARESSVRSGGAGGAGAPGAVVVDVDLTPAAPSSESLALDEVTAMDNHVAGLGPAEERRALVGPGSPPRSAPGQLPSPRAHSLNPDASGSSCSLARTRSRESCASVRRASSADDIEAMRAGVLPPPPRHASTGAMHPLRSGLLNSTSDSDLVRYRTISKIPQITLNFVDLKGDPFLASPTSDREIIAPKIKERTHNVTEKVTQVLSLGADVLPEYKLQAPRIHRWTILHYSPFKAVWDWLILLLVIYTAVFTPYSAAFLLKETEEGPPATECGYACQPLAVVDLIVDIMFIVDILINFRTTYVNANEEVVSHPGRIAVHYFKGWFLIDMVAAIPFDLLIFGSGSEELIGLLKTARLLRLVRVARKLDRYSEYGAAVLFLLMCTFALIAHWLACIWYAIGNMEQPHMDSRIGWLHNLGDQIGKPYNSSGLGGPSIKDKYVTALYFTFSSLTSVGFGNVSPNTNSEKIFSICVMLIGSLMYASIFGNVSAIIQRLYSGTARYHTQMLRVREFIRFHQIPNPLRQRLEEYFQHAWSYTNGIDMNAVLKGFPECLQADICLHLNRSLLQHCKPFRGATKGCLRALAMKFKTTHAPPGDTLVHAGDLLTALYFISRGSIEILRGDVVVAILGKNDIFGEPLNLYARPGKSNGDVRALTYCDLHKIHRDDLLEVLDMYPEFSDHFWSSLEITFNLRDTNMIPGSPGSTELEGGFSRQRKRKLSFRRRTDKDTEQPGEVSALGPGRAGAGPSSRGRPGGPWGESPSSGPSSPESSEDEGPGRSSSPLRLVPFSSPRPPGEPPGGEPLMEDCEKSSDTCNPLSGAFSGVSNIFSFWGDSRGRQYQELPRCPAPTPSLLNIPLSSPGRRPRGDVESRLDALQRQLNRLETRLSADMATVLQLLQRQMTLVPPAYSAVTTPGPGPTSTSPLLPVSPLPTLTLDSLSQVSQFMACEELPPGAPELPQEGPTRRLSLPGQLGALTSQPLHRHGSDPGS
# [4] = A Cell Based Secondary Assay To Explore Cytotoxicity of Compounds that Sensitize Mycobacterium Tuberculosis to Beta-Lactam Antibiotics.; format: functional
# [5] = cytotoxicity in HPDE-C7 cells, cell-based, fluorescence, HTS (AID 430); format: functional; conditions: Homo sapiens
# [6] = cytotoxicity in KRAS-transformed pancreatic duct cells, primary screen, cell-based, fluorescence, HTS (AID 431); format: functional; conditions: Homo sapiens;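 note: cell line used: HPDE-C7K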
# [7] = biological target: NAD-dependent protein deacylase sirtuin-5, mitochondrial (Homo sapiens, UniProt Q9NXA8); experiment: SIRT5 desuccinylase inhibitors, dose response, biochemical, fluorescence imaging, cherry-pick, set 5 (AID 720591);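 note: desuccinylation of succinyl peptide AMC substrate read as fluorescence after trypsin release; potency of inhibitors that lower fluorescence and may act on trypsin instead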
# NAD-dependent protein deacylase sirtuin-5, mitochondrial, sequence (Q9NXA8 whole entry): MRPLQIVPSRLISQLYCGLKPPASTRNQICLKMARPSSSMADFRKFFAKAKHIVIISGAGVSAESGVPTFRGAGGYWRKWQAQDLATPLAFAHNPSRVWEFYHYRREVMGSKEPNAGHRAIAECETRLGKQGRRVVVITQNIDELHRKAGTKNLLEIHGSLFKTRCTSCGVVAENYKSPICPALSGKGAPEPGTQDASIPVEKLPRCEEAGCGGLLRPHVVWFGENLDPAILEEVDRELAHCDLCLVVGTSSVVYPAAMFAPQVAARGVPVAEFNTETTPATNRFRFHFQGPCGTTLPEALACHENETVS
# [8] = biological target: Paired box protein Pax-8 (Homo sapiens, UniProt Q06710); experiment: inhibitors of PAX8-driven TPO luciferase reporter, dose response, RMG-I cells, cherry-pick (AID 687027); format: functional, cell-based;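 note: luciferase reporter driven by Pax8 target thyroperoxidase promoter measured by SteadyGlo luminescence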
# Paired box protein Pax-8, sequence (Q06710 whole entry): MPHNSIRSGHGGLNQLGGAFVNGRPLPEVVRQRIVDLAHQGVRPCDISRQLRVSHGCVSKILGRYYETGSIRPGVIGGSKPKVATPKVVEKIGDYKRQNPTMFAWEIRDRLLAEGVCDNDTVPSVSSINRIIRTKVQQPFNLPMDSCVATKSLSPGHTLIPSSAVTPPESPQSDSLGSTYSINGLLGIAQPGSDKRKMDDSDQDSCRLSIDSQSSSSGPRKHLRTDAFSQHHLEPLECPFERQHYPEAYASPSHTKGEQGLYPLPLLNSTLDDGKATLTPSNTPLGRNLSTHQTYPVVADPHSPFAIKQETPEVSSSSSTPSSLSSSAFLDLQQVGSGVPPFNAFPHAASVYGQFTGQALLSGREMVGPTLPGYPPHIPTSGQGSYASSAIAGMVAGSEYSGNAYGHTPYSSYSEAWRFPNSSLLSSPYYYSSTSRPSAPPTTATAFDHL
# [9] = PAX2 cell-based inhibition, dose response, selectivity assay for PAX8 inhibitor project, plate reader, dry powder samples (AID 743048); format: functional;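 note: HEK293 cells carrying a WT1 promoter luciferase reporter driven by expressed Pax2; potency is for inhibition of Pax2 driven reporter signal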
# [10] = cytotoxicity in COV362 ovarian cancer cells, dose response, cytotoxicity control for PAX8 inhibitor project, cell-based, plate reader, dry powder, SA12 (AID 743144); format: functional
# [11] = A2780 ovarian cancer cell cytotoxicity, dose response, cytotoxicity control, plate reader, dry powder samples (AID 743046); format: functional, cell-based
# [12] = PAX5 activity inhibitors, dose response, selectivity assay for PAX8 inhibitor project, cell-based, plate reader, dry powder samples (AID 743047); format: functional;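 note: HEK293 cells carrying a Pax5 driven CD19 promoter luciferase reporter; potency of inhibitors that lower reporter luminescence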
# [13] = cytotoxicity in OVCAR4 cells, dose response, cytotoxicity control for PAX8 inhibitor project, cell-based, plate reader, dry powder, SA11 (AID 743150); format: functional; conditions: OVCAR-4
# [14] = cytotoxicity in COV434 cells, dose response, cytotoxicity control for PAX8 inhibitor project, cell-based, plate reader, dry powder, SA7 (AID 743145); format: functional
# [15] = cytotoxicity in OVCAR8 ovarian cancer cells, dose response, PAX8 project, cell-based, plate reader, dry powder samples (AID 743197); format: functional; conditions: OVCAR-8
# [16] = cytotoxicity dependent on PAX8, dose response, cell-based, plate reader, dry powder (AID 743049); format: functional
# [17] = inhibitors of HIV Env-driven cell fusion, dose response, cherry-pick (AID 652057); format: functional, cell-based
# [18] = CEM21 lymphoblast cell cytotoxicity, dose response, cytotoxicity control for viral fusion inhibitor project, CellTiter-Glo luminescence, cherry-picked (AID 652042); format: functional, cell-based;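 note: potency for signal decrease meaning cytotoxicity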
# [19] = ZM109 Env clade C HIV-1 fusion inhibitors, dose response, HeLa effector, CEM target cells, luciferase, cherry-pick (AID 652058); format: functional, cell-based
# [20] = inhibitors of clade B AD8 Env fusion, dose response, cell-based, cherry-pick (AID 652062); format: functional;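 note: luciferase signal from cell-cell fusion driven by HIV-1 clade B AD8 Env; potency is for inhibitors of fusion seen as a drop in luminescence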
# [21] = IOSE-T80 ovarian epithelial cell cytotoxicity, dose response, cytotoxicity control for PAX8 inhibitor project, plate reader, dry powder samples (AID 743045); format: functional, cell-based
# [22] = NIH:OVCAR-3 ovarian cancer cell cytotoxicity, dose response, PAX8 inhibitor project, plate reader, dry powder samples (AID 743044); format: functional, cell-based
# [23] = IGROV1 ovarian cancer cell cytotoxicity, dose response, PAX8 inhibitor project, plate reader, dry powder samples (AID 743043); format: functional, cell-based; conditions: IGROV-1
# [24] = non-specific cell cytotoxicity, dose response, cytotoxicity control for PAX8 inhibitor project, plate reader, dry powder samples (AID 743021); format: functional, cell-based
# [25] = inhibitors of PGC1a acetylation in cells, dose response, cell-based, cherry-picked samples (AID 720514); format: functional;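 note: potency may reflect raised or lowered acetylation signal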
# [26] = P. falciparum 3D7-ScDHODH growth inhibitors, dose response, SYBR Green, dry powder samples (AID 1159570); format: functional, cell-based;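 note: parasite growth measured after 72 hours of compound exposure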
# [27] = HepG2 cell cytotoxicity, dose response, cytotoxicity control, plate reader, dry powder samples (AID 1159569); format: functional, cell-based;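 note: inhibitor potency with signal falling toward the positive control level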
# [28] = P. falciparum Dd2 growth inhibitors, dose response, SYBR Green, cherry-picked samples (AID 1159567); format: functional, cell-based
# [29] = P. falciparum Dd2 growth inhibitors, dose response, SYBR Green, dry powder samples (AID 1159566); format: functional, cell-based;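 note: potency for growth inhibition with lower SYBR green DNA signal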
# [30] = P. falciparum ATP4 D1247Y mutant growth inhibitors, dose response, NITD609-resistant line, SYBR Green, dry powder (AID 1159571); format: functional, cell-based;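 note: parasites synchronized at ring stage by sorbitol before testing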
# [31] = half-maximal inhibitory concentration for glucagon-like peptide-1 release, STC-1 cell line, dose-response (AID 1117345); format: functional, cell-based
# [32] = Glucagon-like peptide 1 release potency, NCI-H716 cell line, dose-response, half-maximal inhibitory concentration (AID 1117344); format: functional, cell-based
# [33] = Dose-response inhibition of insulin secretion in a rat insulinoma line at 5 mM glucose (AID 1117331); format: functional, cell-based; conditions: INS-1E
smiles,measurement,setting,value
CCN(CC)S(=O)(=O)c1ccc(C(=O)Nc2nnc(N=C(S)Nc3ccccc3)s2)cc1,IC50,[1],6.46 µM (active)
same,IC50,[2],> 111 µM (not active)
O=C(NCc1ccc2c(c1)OCO2)C1CCC(CNS(=O)(=O)c2ccc(Cl)cc2)CC1 (stereo not drawn),IC50,[1],> 148 µM (not active)
same,IC50,[2],> 111 µM (not active)
Cc1ccc(C(=O)CC(=O)c2cccc(F)c2)c(O)c1,EC50,[3],3.76 µM (active)
CC(O)/C=C/c1ccc2ccccc2n1 (stereo not drawn),CC50,[4],35.2 µM (active)
same,EC50,[5],17.8 µM (active)
same,EC50,[6],> 20 µM (not active)
CCN(Cc1nc(-c2ccccc2)no1)C(=O)c1ccco1,AC50,[7],> 30 µM (inactive)
N#C[C@@H]1[C@H](c2ccc(C#CC3CCCC3)cc2)[C@H](CO)N1C(=O)Nc1ccc(F)cc1,AC50,[8],10.5 µM (active)
same,AC50,[9],9.84 µM (active)
same,AC50,[10],62.6 µM (active)
same,AC50,[11],19.4 µM (active)
same,AC50,[12],9.89 µM (active)
same,AC50,[13],18.8 µM (active)
same,AC50,[14],46.9 µM (active)
same,AC50,[15],> 70 µM (inactive)
same,AC50,[16],19.8 µM (active)
C[C@@H]1CN([C@@H](C)CO)C(=O)Cc2cc(NS(=O)(=O)c3ccccc3)ccc2O[C@H]1CN(C)Cc1ccc(Cl)c(Cl)c1,AC50,[17],8.55 µM (active)
same,AC50,[18],20.3 µM (active)
same,AC50,[19],289 nM (active)
same,AC50,[8],2.42 µM (active)
same,AC50,[20],1.19 µM (active)
same,AC50,[21],10.8 µM (active)
same,AC50,[11],24.9 µM (active)
same,AC50,[22],11 µM (active)
same,AC50,[23],5.66 µM (active)
same,AC50,[24],3.32 µM (active)
same,AC50,[15],11.5 µM (active)
COc1cccc(-c2ccc([C@@H]3[C@@H]4CN(C(=O)C5CC5)C[C@H]3N4)cc2)c1,AC50,[8],3.06 µM (active)
same,AC50,[25],24.1 µM (active)
same,AC50,[22],43.6 µM (active)
same,AC50,[15],39 µM (active)
same,AC50,[26],850 nM (active)
same,AC50,[27],34.3 µM (active)
same,AC50,[28],949 nM (active)
same,AC50,[29],634 nM (active)
same,AC50,[30],1.03 µM (active)
C[C@H](CO)N1C[C@H](C)[C@@H](CN(C)Cc2ccc(-c3ccccc3)cc2)OCc2ccccc2-c2c(n(C)c3ccccc23)C1=O,AC50,[26],2060 nM (active)
same,AC50,[27],19.1 µM (active)
same,AC50,[28],2350 nM (active)
same,AC50,[29],865 nM (active)
same,AC50,[30],1.46 µM (active)
CC1=C(C(=O)O)N2C(=O)[C@@H](NC(=O)[C@H](N)c3ccccc3)[C@H]2SC1 [CEPHALEXIN ANHYDROUS],IC50,[31],> 40 µM (inactive)
same,IC50,[32],> 40 µM (inactive)
CCCCCNC(=N)N/N=C/c1c[nH]c2ccc(OC)cc12 [TEGASEROD],IC50,[33],16.8 µM (inactive)
same,IC50,[31],> 40 µM (inactive)
same,IC50,[32],10.9 µM (inactive)
